Data set [1] deals with Herpes simplex virus (HSV). The class given is cell-based. Here is the method:
[…]. The cardiac glycosides Digoxin, Digitoxin, Lanoxin and Strophanthin G were also tested.
Using Herpes simplex virus (HSV), 50% plaque inhibitory dose (1D50) were established using the standard plaque inhibition assay. Various solvents were required to facilitate testing and these were sometimes detrimental to tissue culture, depending upon their concentration. […]; experimental conditions in which solvent toxicity was excluded.
(§1) These compounds (Acetazolamide, Tolbutamide and Hydrochiorthiazide) were further tested using alternative solvents in the same test system (ie the plaque inhibition assay) and others (Bumetanide, Torasemide, Tolbutamide and Hydrochlothiazide) in a more sensitive test for ICVT activity in which the effects on virus yields were determined.

In data set [2] the test system is Herpes simplex virus (HSV). The data set can be described thus: Comparative ICVT-ivities of Digoxin, Digitoxin and Lanoxin. The settings on record: for ID50: 250 ug per ml stock solutions, powder in 70% ethanol, Lanoxin in 10% ethanol; for ICVT-ivity of saturated solution compared with standard: saturated solutions in 90% ethanol. The class given is cell-based.
The subject of data set [3] is MRC5 cells. The settings on record: uninfected cells; drug(s) at VZV ID 50 concentrations.
Another data set concerns Adenovirus. Briefly: 50% plaque inhibitory concentration, Adenovirus in A549. Particulars: unidentified adenovirus.
For data set [4] the following is noted: cited from earlier work.
The nature of data set [5]: Drug release from Glue 1 mass-ratio patches into mobile phase.
Data set [6] can be described thus: Drug permeation through porcine ear skin (Franz diffusion cells).
Data set [7] has as its system type 2 herpes simplex strain 3345. The data set can be described thus: Inhibition of HSV2 replication in African green monkey kidney cells (Example 3). The format is cell-based, herpes simplex virus. Particulars: for inhibition at 15 µg/mL: Digoxin 15 mcg/ml; for inhibition at 15 µg/mL / inhibition at 30 µg/mL: Furosemide 0 mg/ml; for inhibition at 30 µg/mL: Digoxin 30 mcg/ml; for inhibition at 500 µg/mL / inhibition at 1000 µg/mL: Digoxin 0 mcg/ml, read-out: Inhibition of virus replication; for inhibition at 500 µg/mL: Furosemide 0.5 mg/ml; for inhibition at 1000 µg/mL: Furosemide 1.0 mg/ml. The source says: The compositions were applied to different types of vero cells (African green monkey kidney cells and BHK1 cells) and infected with type 2 herpes simplex virus (strains 3345 and 180) at low, intermediate, and high multiplicities of infection (MOI). Inhibition of virus replication was scored on the scale:
The following results were obtained using African green monkey kidney cells and type 2 herpes simplex strain 3345: […]

Data set [8] can be described thus: Diffusional release of D and F from Collodions. The format is physicochemical. Here is the method:
Drug mix (for composition see table 2) 0.02 g (a stock was made) was weighted on an analytical balance (accurate to 5 decimal places) and added directly to 10 ml of Collodion and 10 ml of ethanol in a McCartney bottle. The molar ratios used were F:D; 1:1, 1:2.5 (2:5) and 1:10 because a smaller amount of drug mix was used, compared to the drug-in-adhesive and this allowed measurable amounts of F to be used. Each of the McCartney bottles was vortexed for three minutes and left to rotate on a blood serum rotator overnight, to ensure that the mixture was homogeneous and that any air bubbles present had dispersed. Control Collodions were also prepared by the same method, however, no drug mix was added.
Different molar ratios of the two drugs were used to determine affect upon release rate and the extent of the release of each drug. The Collodion, 200 μl, was dispensed to the bottom of general 7 ml glass screw cap vials using a Gilson Pipette and left to dry for three hours. Then 2 ml of dissolution medium, again de-gassed EtOH/water 10:90, was added to each vial. The amount of receptor phase sampled and replenished was 200 μl, with a total of five replicates performed for each treatment.
The injection volume of each sample was 20 μl. […] Data were acquired using Agilent software.

Data set [9] has as its system MRC5 cells. The data set can be described thus: MRC5 cell replication. The settings on record: Furosemide 1.0 mg/ml; Digoxin 0.05 ug/ml; both at VZV ID50 concentrations; 72 hours.
Data set [10] is described as follows: Solubility of the drugs in a range of solvents.
Protocol: A study was performed that measure the solubility of the drugs in a range of solvents.
Data set [11] is described as follows: Diffusional release of D and F from drug-in-adhesive patches. The class given is physicochemical.
For data set [12] the following is noted: 72 hours.
Protocol: The receptor fluid was stirred continuously to ensure a homogenous receptor solution.
The drug that accumulated in the skin was also measured. The drug that was present in a 2 cm diameter cross section of skin was calculated for all four formulations.
A further data set concerns Varicella-Zoster virus. Briefly: 50% plaque inhibitory concentration, Varicella-Zoster virus in MRC5.
Data set [13] relates to Varicella Zoster Virus (Ellen strain).
In the next data set the test system is Cytomegalovirus. The data set can be described thus: 50% plaque inhibitory concentration, Cytomegalovirus in MRC5.
Another data set has as its system Herpes simplex virus. Briefly: 50% plaque inhibitory concentration, Herpes simplex virus in MRC5.
For data set [14] the following is noted: patches F:D 1:1 across pig skin.
Protocol: The ears were washed under running water and full-thickness dorsal skin was separated from the cartilage via blunt dissection using a scalpel, then hair was removed using an electric razor. The skin was cut into samples of approximately 2 cm^2 and visually inspected to ensure that each piece was free from abrasions and blood vessels. Specimens were then stored in a crease free state on aluminium foil at −20° C. until required.
The skin samples were removed from the freezer and left to fully defrost. The donor and receptor compartments of Franz-type diffusion cells (see FIG. 13) were greased, to provide a tight seal and prevent any leakage from the receptor phase. The polymer-lined paper was removed from the patches to expose one side and firmly pressed centrally onto the surface of each piece of skin. After adhesion was established, the skin was mounted onto the flange of a receptor compartment (nominal volume 2.5 ml) of the diffusion sell, ensuring that the patch was placed directly over the flange aperture. […]
D and F were detected using an ultraviolet (UV) detector set at wavelength 220 nm. […]
Chromatogram peaks were integrated manually, and the data corrected for dilution effects. Cumulative release was determined and plotted against the square route of time to determine release rates. Cumulative permeation data were determined and plotted against time to order to obtain flux. […]
Data set [15] concerns MRC5 cells. The data set can be described thus: MRC5 cell morphology (phase contrast microscopy). Particulars: Furosemide 1.0 mg/ml; Digoxin 0.05 ug/ml; combined dosage at individual ID 50; 72 hours.
The test system of data set [16] is Herpes simplex virus (HSV). Briefly: HSV virus yield test for ICVT activity. The class given is cell-based. Here is the method: as §1
Setting [17] is: Human alphaherpesvirus 2, read-out: Inhibition of virus replication, HIGH MOI HSV2.
[18] abbreviates: Human alphaherpesvirus 2, read-out: Inhibition of virus replication, LOW MOI HSV2.
The mark [19] stands for this setting: Human alphaherpesvirus 2, HIGH MOI HSV2.
The mark [20] stands for this setting: Human alphaherpesvirus 2, INT. MOI HSV2.
The mark [21] stands for this setting: Human alphaherpesvirus 2, LOW MOI HSV2.

Structures are written as SMILES. Values after ≈ are worked out from the molar mass of the structure shown. Read-outs that look alike come from different tables or passages of the source.

In the case of `CC(=O)Nc1nnc(S(N)(=O)=O)s1` [Acetazolamide], the “ICVT activity (in words)” value in data set [1] (HSV plaque inhibition assay) was “borderline”.
For the molecule `C[C@H]1O[C@@H](O[C@H]2[C@@H](O)C[C@H](O[C@H]3[C@@H](O)C[C@H](O[C@H]4CC[C@@]5(C)[C@H](CC[C@@H]6[C@@H]5CC[C@]5(C)[C@@H](C7=CC(=O)OC7)CC[C@]65O)C4)O[C@@H]3C)O[C@@H]2C)C[C@H](O)[C@@H]1O` [Digitoxin], in data set [2], the ID50 is listed as 30 ng per ml and the “ICVT-ivity of saturated solution compared with standard” value is reported as “more effective than Digoxin”. In data set [1] (HSV plaque inhibition assay), the “ICVT activity (in words)” value is “potent ICVT activity”.
Turning to `C[C@H]1O[C@@H](O[C@H]2[C@@H](O)C[C@H](O[C@H]3[C@@H](O)C[C@H](O[C@H]4CC[C@@]5(C)[C@H](CC[C@@H]6[C@@H]5C[C@@H](O)[C@]5(C)[C@@H](C7=CC(=O)OC7)CC[C@]65O)C4)O[C@@H]3C)O[C@@H]2C)C[C@H](O)[C@@H]1O` [Digoxin], the “MRC5 cell metabolism (MTT assay)” value with MRC5 cells [3] is “normal levels of metabolism”. In addition, the IC50 was 0.015 mg/L (≈ 0.0192 µM) in the data set on Adenovirus (A549, read-out: Digixin IC50); 0.05 mg/L (≈ 0.064 µM) with Varicella-Zoster virus (Human alphaherpesvirus 3, MRC5, read-out: Digixin IC50); 0.02 mg/L (≈ 0.0256 µM) with Cytomegalovirus (Human betaherpesvirus 5, MRC5, read-out: Digixin IC50); 0.025 mg/L (≈ 0.032 µM) in the data set with Herpes simplex virus (MRC5, read-out: Digixin IC50). Further, the solubility entry was “slightly soluble” in [4] (in diluted (50%) alcohol and in chloroform); “freely soluble” in [4] (in pyridine); “practically insoluble” in data set [4] (in water and in ether); 8.2 mg/mL (≈ 10500 µM) in [10] (Solvent Methanol); 5.08 mg/mL (≈ 6500 µM) in [10] (organic solvent or mixture, Solubility, Solvent Ethanol); 20.4 mg/mL (≈ 26100 µM) in data set [10] (organic solvent or mixture, Solubility, Solvent Ethyl acetate). In [5], the “permeation coefficient for the patch” value was found to be 1.6 nm/s. This molecule showed a loading dose required in [6] (for flux of 1.04 μg per cm^2 per hour (25 μg per day per cm^2)) of 6004.5 μg per cm^3. The “initial concentration within the patch for the flux to be greater than zero” value in [6] (from plot of patch concentration vs steady state flux through skin) amounted to 804.5 µg/mL. The inhibition at 15 µg/mL worked out at 0% in [7] (setting [17]); 0% in data set [7] (Human alphaherpesvirus 2, read-out: Inhibition of virus replication, INT. MOI HSV2); 0% in data set [7] (setting [18]). In addition, the inhibition at 30 µg/mL in data set [7] (setting [17]) came out at 0%; in data set [7] (setting [18]), 60%. Further, under “Collodion”, the “mass/area that permeated the skin” value was determined as 8.02 μg cm^−2. Further, the Apparent maximum flux (Collodion F:D 1:1 across pig skin) was determined as 0.313 μgcm^−2 h^−1. The molecule also had a Q24 permeation % (Collodion F:D 1:1 across pig skin, % of loading) of 5.39% and a Q24 permeation % in [14] (% of loading) of 0.12%. The AMF (Collodion, calculated between 12-24 hr) is 0.313 μg cm^−2 h^−1. The “Virus particles per cell” value with feline herpesvirus (Feline herpes virus, drug(s) at IC50, No Drug 50) is listed as 0.75. The “remaining low level of virus replication” value in the data set on feline herpesvirus (feline herpesvirus, drug at IC50) stood at 0.5%. In the data set on feline herpesvirus (feline herpesvirus, drug(s) at IC50), the “production of infectious virus reduced by” value was 98.5%. For the same molecule, in data set [8] (from Collodion after 24 hr), the “maximal dose of digoxin released” value is roughly 34.01 μg cm^−2. Also, in the data set with MRC5 cells [9], the “uninfected MRC5 cell replication” value was “replicated to normal yields”. Besides, in data set [11], the “maximum mass/area of digoxin released (maximal dose)” value is roughly 136.18 μgcm^−2. In addition, the “concentration at which the skin was saturated” value is reported as 12.73 μg/cm^2 in data set [12] and 40 ug over 3.14 cm^2 in data set [12] (2 cm diameter skin section). The molecule also yielded an ID50 in data set [2] of 60 ng per ml. The “ICVT-ivity of saturated solution compared with standard” value in data set [2] was “as effective as Lanoxin”. For the same molecule, the “ICVT activity (in words)” value in data set [1] is “potent ICVT activity”. For the same molecule, the inhibition in data set [13] was roughly 50%. For the same molecule, in [14], the Apparent flux maximum is 3.499 μgcm^−2 h^−1. For the same molecule, in the data set with MRC5 cells [15], the “effect on MRC5 cell morphology” value is recorded as “no adverse effect on cell morphology”.
Regarding `NS(=O)(=O)c1cc(C(=O)O)c(NCc2ccco2)cc1Cl` [Furosemide, 4-chloro-N-furfuryl-5-sulfamoylanthranilic acid], the half-maximal inhibitory concentration (IC50) in the data set with Adenovirus (A549, read-out: Furosemide IC50) turned out to be 300 mg/L (≈ 907 µM); in the data set on Varicella-Zoster virus (Human alphaherpesvirus 3, MRC5, read-out: Furosemide IC50), 500 mg/L (≈ 1510 µM); with Cytomegalovirus (Human betaherpesvirus 5, MRC5, read-out: Furosemide IC50) it was 600 mg/L (≈ 1810 µM); with Herpes simplex virus (MRC5, read-out: Furosemide IC50), 600 mg/L (≈ 1810 µM). The inhibition at 500 µg/mL in [7] (setting [19]) came to 0%; in data set [7] (setting [20]) it was 20%; in data set [7] (setting [21]), 20%. In addition, the inhibition at 1000 µg/mL stood at 40% in data set [7] (setting [19]), 60% in [7] (setting [20]) and 60% in data set [7] (setting [21]). Moreover, in data set [8] (from Collodion after 48 hr), the “Maximal dose released (furosemide)” value is on record as roughly 6.02 μg cm^−2. In [1] (HSV plaque inhibition assay), the “ICVT activity (in words)” value is reported as “potent ICVT activity”.
Take `NS(=O)(=O)c1cc2c(cc1Cl)NCNS2(=O)=O` [Hydrochiorothiazide, Hydrochlorothiazide]: the “concentration at which HSV yield reduced to zero” value in [16] (Solvent: NaOH 1% aqueous 10 mg/ml) is listed as “HSV yield reduced to zero at 600 ug/ml”. Moreover, the “ICVT activity (in words)” value in [1] (HSV plaque inhibition assay) is recorded as “borderline”.
`C[C@@H]1O[C@@H](O[C@H]2C[C@@H](O)[C@]3(CO)[C@H]4[C@H](O)C[C@]5(C)[C@@H](C6=CC(=O)OC6)CC[C@]5(O)[C@@H]4CC[C@]3(O)C2)[C@H](O)[C@H](O)[C@H]1O` [Strophanthin G]: in data set [1] (1 mg/ml, Solvent: Aqueous), the “remark on toxicity at the HSV Plaque ID50” value is given as “Cytotoxic”.
Turning to `CCCCNC(=O)NS(=O)(=O)c1ccc(C)cc1` [Tolbutamide], the “concentration at which HSV yield reduced to zero” value in [16] (Solvent: PEG 10 mg/ml) and in [16] (Solvent: PG 10 mg/ml) was “HSV yield reduced to zero 300 μg/ml” in each case. Moreover, the “ICVT activity (in words)” value in data set [1] (HSV plaque inhibition assay) is listed as “borderline”.
Consider `Cc1cccc(Nc2ccncc2S(=O)(=O)NC(=O)NC(C)C)c1` [Torasemide], for which the HSV yield entry in data set [16] (at 90 μg/ml, Solvent: NaOH 1% aqueous 5 mg/ml) is reported as “HSV yield unaffected at 90 μg/ml”.
